System: RS4; 11 with G101V mutation
Assay: In vitro anti-proliferation assay (ATPlite luminescence) in BCL-2-dependent ALL cell line RS4;11 with G101V mutation
Assay type: cell-based
Conditions: cellular anti-proliferative IC50, about 72 hours, medium with 10% FBS, ATPlite; read-out: RS411-G101V IC50
Summary of the method: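 RS4;11 G101V cells at about 1×10^4 per well were exposed to a range of compound concentrations for about 72 h in medium with 10% FBS. Cellular ATP was measured by ATPlite luminescence after lysis, and IC50 was derived from the dose-response.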

| SMILES | IC50 |
| --- | --- |
| COc1ncc(CN2CCN(C3CC4(CCN(c5ccc(C(=O)NS(=O)(=O)c6ccc(NCC7CCC(C)(O)CC7)c([N+](=O)[O-])c6)c(N6c7cc8cc[nH]c8nc7O[C@H]7COCC[C@@H]76)c5)CC4)C3)[C@@H](c3ccccc3OC(C)C)C2)cc1N1CCOCC1 (stereo partly drawn) [Example 163, N-((4-((((1r,4r)-4-hydroxy-4-methylcyclohexyl)methyl)amino)-3-nitrophenyl)sulfonyl)-4-(2-((S)-2-(2-isopropoxyphenyl)-4-((6-methoxy-5-morpholinopyridin-3-yl)methyl)piperazin-1-yl)-7-azaspiro[3.5]nonan-7-yl)-2-((5aS,9aR)-6,7,9,9a-tetrahydro-1H-pyrano[3,4-b]pyrrolo[3′,2′:5,6]pyrido[3,2-e][1,4]oxazin-5(5aH)-yl)benzamide] | 27.9 nM |
| Cc1ccccc1[C@@H]1CN(Cc2ccc(F)c(F)c2)CCN1C1CC2(CCN(c3ccc(C(=O)NS(=O)(=O)c4ccc(NCC5CCOCC5)c([N+](=O)[O-])c4)c(N4c5cc6cc[nH]c6nc5O[C@H]5COCC[C@@H]54)c3)CC2)C1 [Example 164, 4-{2-[(2R)-4-[(3,4-difluorophenyl)methyl]-2-(2-methylphenyl)piperazin-1-yl]-7-azaspiro[3.5]nonan-7-yl}-2-[(3R,8S)-2,5-dioxa-9,15,17-triazatetracyclo[8.7.0.0^{3,8}.0^{12,16}]heptadeca-1(10),11,13,16-tetraen-9-yl]-N-{3-nitro-4-[(oxan-4-ylmethyl)amino]benzenesulfonyl}benzamide] | 48.5 nM |
| CC(C)c1ccccc1[C@@H]1CN(Cc2ccc(F)c(F)c2)CCN1C1CC2(CCN(c3ccc(C(=O)NS(=O)(=O)c4ccc(NCC5CCOCC5)c([N+](=O)[O-])c4)c(N4c5cc6cc[nH]c6nc5O[C@H]5COCC[C@@H]54)c3)CC2)C1 [Example 165, 4-{2-[(2R)-4-[(3,4-difluorophenyl)methyl]-2-(2-isopropylphenyl)piperazin-1-yl]-7-azaspiro[3.5]nonan-7-yl}-2-[(3R,8S)-2,5-dioxa-9,15,17-triazatetracyclo[8.7.0.0^{3,8}.0^{12,16}]heptadeca-1(10),11,13,16-tetraen-9-yl]-N-{3-nitro-4-[(oxan-4-ylmethyl)amino]benzenesulfonyl}benzamide] | 10.9 nM |
| CC(C)c1ccccc1[C@H]1CN(Cc2ccc(F)c(F)c2)CCN1C1CC2(CCN(c3ccc(C(=O)NS(=O)(=O)c4ccc(NCC5CCOCC5)c([N+](=O)[O-])c4)c(N4c5cc6cc[nH]c6nc5O[C@H]5COCC[C@@H]54)c3)CC2)C1 [Example 166, 4-{2-[(2S)-4-[(3,4-difluorophenyl)methyl]-2-(2-isopropylphenyl)piperazin-1-yl]-7-azaspiro[3.5]nonan-7-yl}-2-[(3R,8S)-2,5-dioxa-9,15,17-triazatetracyclo[8.7.0.0^{3,8}.0^{12,16}]heptadeca-1(10),11,13,16-tetraen-9-yl]-N-{3-nitro-4-[(oxan-4-ylmethyl)amino]benzenesulfonyl}benzamide] | 585 nM |
| Cc1ccccc1[C@@H]1CN(Cc2ccc(F)c(F)c2)CCN1C1CC2(CCN(c3ccc(C(=O)NS(=O)(=O)c4cc5c(c([N+](=O)[O-])c4)N[C@@H](C4CCOCC4)CO5)c(N4c5cc6cc[nH]c6nc5O[C@H]5COCC[C@@H]54)c3)CC2)C1 [Example 167, 4-{2-[(2R)-4-[(3,4-difluorophenyl)methyl]-2-(2-methylphenyl)piperazin-1-yl]-7-azaspiro[3.5]nonan-7-yl}-2-[(3R,8S)-2,5-dioxa-9,15,17-triazatetracyclo[8.7.0.0^{3,8}.0^{12,16}]heptadeca-1(10),11,13,16-tetraen-9-yl]-N-[(3S)-5-nitro-3-(oxan-4-yl)-3,4-dihydro-2H-1,4-benzoxazin-7-ylsulfonyl]benzamide] | 75.8 nM |
